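96-well plates; 48 h exposure; 5 concentrations. Endpoints by linear interpolation between flanking doses. Not reached: highest tested concentration assigned. At the GI50, growth is halved. Definition used: TGI = concentration required for complete inhibition of growth.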
What was measured:
Experiment in all cases: DTP human tumour cell line panel, 48 h
[1] = test system: SF-295 CNS
[2] = test system: SF-268 CNS
[3] = test system: KM12 colon
[4] = test system: SK-OV-3 ovarian
[5] = test system: SR leukemia
[6] = test system: SK-MEL-28 melanoma
[7] = test system: MOLT-4 leukemia
[8] = test system: UO-31 renal
[9] = test system: LOX IMVI melanoma
[10] = test system: MDA-MB-231 breast
[11] = test system: NCI-H522 lung
[12] = test system: SF-539 CNS
[13] = test system: PC-3 prostate
[14] = test system: NCI/ADR-RES ovarian
[15] = test system: TK-10 renal
[16] = test system: MALME-3M melanoma
[17] = test system: HOP-92 NSCLC
[18] = test system: NCI-H226 lung
[19] = test system: HCC-2998 colon
[20] = test system: U251 CNS
[21] = test system: OVCAR-3 ovarian
[22] = test system: DU-145 prostate
[23] = test system: SW-620 colon
[24] = test system: HCT-15 colon
[25] = test system: SK-MEL-2 melanoma
[26] = test system: SN12C renal
[27] = test system: BT-549 breast
[28] = test system: A549 NSCLC

**Q.** Which results are given for `CCN1CCN(c2ccc(NC(=O)Nc3nc4ccc(-c5ccccc5OC)cc4s3)cc2)CC1`?
**A.** TGI [1]: 3090 nM; GI50 [2]: 1870 nM; TGI [2]: 3630 nM; GI50 [3]: 1750 nM; TGI [3]: 3330 nM; GI50 [4]: 1790 nM; TGI [4]: 3550 nM; GI50 [5]: 1650 nM; TGI [5]: 4310 nM; GI50 [6]: 1760 nM; TGI [6]: 3260 nM; GI50 [7]: 1800 nM; TGI [7]: 3670 nM; GI50 [8]: 1520 nM; TGI [8]: 2920 nM; GI50 [9]: 1700 nM; TGI [9]: 3170 nM; GI50 [10]: 1720 nM; TGI [10]: 3280 nM; GI50 [11]: 1750 nM; TGI [11]: 3500 nM; GI50 [12]: 1600 nM; TGI [12]: 3030 nM; GI50 [13]: 1790 nM; TGI [13]: 3470 nM; GI50 [14]: 1720 nM; TGI [14]: 3350 nM; GI50 [15]: 2120 nM; TGI [15]: 3600 nM; GI50 [16]: 1710 nM; TGI [16]: 3340 nM; GI50 [17]: 1470 nM; TGI [17]: 3750 nM; GI50 [18]: 2090 nM; TGI [18]: 4520 nM; GI50 [19]: 1830 nM; TGI [19]: 3390 nM; GI50 [20]: 1570 nM; TGI [20]: 2940 nM; GI50 [21]: 1640 nM; TGI [21]: 3110 nM; GI50 [22]: 1750 nM; TGI [22]: 3260 nM; GI50 [23]: 1940 nM; TGI [23]: 3550 nM; GI50 [24]: 1200 nM; TGI [24]: 2470 nM; GI50 [25]: 1940 nM; TGI [25]: 3610 nM; GI50 [26]: 1770 nM; TGI [26]: 3370 nM; GI50 [27]: 1880 nM; TGI [27]: 3730 nM; GI50 [28]: 1980 nM; TGI [28]: 3590 nM
